The numbers were not newly measured in US9877929B2, “Topical vitamin D and ubiquinol oral supplement compositions” (Premier Dental Products Company, priority 2011, dated 2018), which cites them from elsewhere.

The conditions of data set [1]: stable UBIQUINOL supplement.

Take `COc1c(O)c(C)c(C/C=C(\C)CC/C=C(\C)CC/C=C(\C)CC/C=C(\C)CC/C=C(\C)CC/C=C(\C)CC/C=C(\C)CC/C=C(\C)CC/C=C(\C)CCC=C(C)C)c(O)c1OC` [UBIQUINOL]: the “time required to reach peak concentration” value (absorption from the gastrointestinal tract) is reported as “approximately 6 hours”. Besides, for the setting “oral treatment”, the “time to steady-state concentrations” value is listed as “two”. Moreover, the peak blood values (orally, 150 mg per day of UBIQUINOL in a softgel, within 28 days) is 3.84 µg/mL. Moreover, in data set [1], the water solubility entry is given as “less than 0.1 mg/ml”.
